From patent US20100040710A1, “Stimulation of the synthesis and of the activity of an isoform of lysyl oxidase-like LOXL for stimulating the formation of elastic fibers” (BASF Beauty Care Solutions France SAS, priority 2003, published 2010)
Marks after values point to notes of the source that are not given here.

How the values were obtained:
Assay type in all cases: cell-based, human
[1] = test system: elastin (Eln) mRNA; assay: Screening of active principles by qualitative RT-PCR: elastin mRNA expression in fibroblasts; settings: actives at 1% (v/v), 24 hours, fibroblasts of the abdomen of mature age adult (donor), mRNA vs actin and negative control
Description: (§1) The active principles were tested at 1% (v/v) on fibroblasts of normal human skin (originating from the foreskin of the infant or originating from the adult). The culture was carried out, e.g. in a monolayer on 24-well culture plates, in a defined medium without serum (Fibroblast Basal Medium). The cells were sown, e.g. at 40,000 per cm^2. At the confluence, the cells are placed in contact with the actives advantageously for 24 hours. In parallel, a non-treated control (medium alone) and three positive controls (TGF-β at 1 ng/ml, IL-1α at […] and Phytokine® (Coletica, Lyons, France) at 2% (v/v)) are advantageously carried out, e.g. on the same culture plate.
(§2) The TGF-β at 1 ng/ml and the IL-1α at 50 pg/ml were tested beforehand and the stimulation of the synthesis of elastin mRNA induced by these two cytokines at these concentrations was verified by an analysis of the mRNAs, e.g. by quantitative RT-PCR (×10 for TGF-β and x6 for IL-1 alpha). After the time of placing the actives in contact with the cells, e.g. 24 hours, the media are removed and the cells are preserved e.g. by dry freezing at −80° C. after a rinsing in phosphate buffer pH 7.4. The total RNAs are extracted e.g. with the aid of an extraction kit of 96 wells on silica columns and were determined on a 96-well spectrophotometer at 260 nm (purity indicator: protein determination at 280 nm). The RNAs are diluted e.g. to 5 ng/μl. The qualitative RT-PCR in 1 step is carried out e.g. on 50 ng of initial RNA on a 96-well plate, on the genes of actin, elastin, of LOX and of LOXL. The specific primers of each gene are used e.g. at 0.5 μM: […]
(§3) The amplification parameters were advantageously the following 48° C., 30 min; 94° C., 2 min; (94° C., 30 seconds; 60° C., 30 seconds; 68° C., 30 seconds) 28 cycles for actin, 30 cycles for LOXL, 32 cycles for LOX, or 34 cycles for elastin; 68° C., 10 min; 14° C., infinity. […] The photographs of the gels were analyzed by image analysis and quantification of the intensity of the bands (Phoretix1D, France). […]

[2] = test system: LOXL mRNA; assay: Screening of active principles by qualitative RT-PCR: LOXL mRNA expression in fibroblasts; settings: actives at 1% (v/v), 24 hours, fibroblasts of the abdomen of mature age adult (donor), mRNA vs actin and negative control
Description: as §1, §2, §3

[3] = test system: LOX mRNA; assay: Screening of active principles by qualitative RT-PCR: LOX mRNA expression in fibroblasts; settings: actives at 1% (v/v), 24 hours, fibroblasts of the abdomen of mature age adult (donor), mRNA vs actin and negative control
Description: as §1, §2, §3

[4] = test system: LOXL mRNA; assay: Real time RT-PCR effectiveness study: LOXL mRNA in adult fibroblasts; settings: 24 hours, adult abdomen fibroblasts (donor)
Description: (§4) […] The culture was carried out e.g. in monolayer in 24-well plates, in a defined medium without serum (Fibroblast Basal Medium). The cells are sown e.g. at 40,000 per cm^2. After the time of placing the actives in contact with the cells (24 hours), the media were removed and the cells were preserved e.g. by dry freezing at −80° C. after a rinsing with phosphate buffer at pH 7.4. At the end of experimentation, the content of mRNA of elastin, of LOXL and of actin is evaluated by an mRNA analysis technique, e.g. by real time RT-PCR. For this, the couples of primers enabling the amplification of specific fragments of these genes are those described above (Example 10).
(§5) After extraction e.g. with the aid of an extraction kit in 96-wells on silica columns and determination on a 96-well spectrophotometer at 260 nm, the RNAs are diluted e.g. to 5 ng/μl. The RT-PCR reactions ([…]) were carried out by quantitative real time RT-PCR with the aid of the “Opticon” system (MJ Research). Advantageously, the reaction mixture (50 μl) introduced into the wells was the following, for each sample: • 10 μl of RNA at a concentration of 5 ng/μl, • The specific primers of the various labels sought after, • Reaction mixture (Qiagen−25 μl 2×QuantiTect SYBR Green RT-PCR master mix containing 5 mM MgCl2+0.5 μl QuantITect RT mix), the label SYBR Green I inserting in the DNA double strands during the elongation step. The RT-PCR Conditions were Advantageously the Following: Reverse Transcription: 30 minutes at 50° C., then 15 minutes at 95° C., PCR reactions: [15 seconds at 94° C., 30 seconds at 60° C. and 30 seconds at 72° C.], 50 cycles.
(§6) The absence of contamination and the purity of the amplified products were verified e.g. via the fusion curves of the amplified PCR products. The products presenting a double peak or an abnormal fusion temperature were eliminated.
(§7) The incorporation of fluorescence in the amplified DNA was evaluated continuously during the PCR cycles. This system enabled obtaining curves of fluorescence measurement as a function of the number of PCR cycles and thus enabled evaluating a relative amount of amplified DNA.
(§8) In order to take account of the cell population present, all the results were compared to the <> signal, which was used as housekeeping gene. According to the experimentation, the threshold of measurement of the C(T) (=Cycle Threshold) was fixed for T between 0.05 and 0.01, and then an arbitrary measurement unit is calculated for each gene according to the formula:
(§9) Sgene<=10^7×(1/2)^C(T)gene<>
(§10) C (T)gene <> signifying the number of cycles necessary to attain the cycle threshold of 0.01-0.05 of the gene <>.
(§11) The values of the genes of interest were compared to the <> signal by calculation of the ratio: […]

[5] = test system: LOX mRNA; assay: Real time RT-PCR effectiveness study: LOX mRNA in adult fibroblasts; settings: 24 hours, adult abdomen fibroblasts (donor)
[6] = test system: elastin mRNA; assay: Real time RT-PCR effectiveness study: elastin mRNA in adult fibroblasts; settings: 24 hours, adult abdomen fibroblasts (donor)
Description: as §4, §5, §6, §7, §8, §9, §10, §11

[7] = test system: elastin mRNA; assay: Positive controls: stimulation of elastin mRNA synthesis by quantitative RT-PCR; settings: 1 ng/ml, fold (×)
Description: as §1
as §2, with “nm).” for “nm). The RNAs are diluted e.g. to 5 ng/μl. The qualitative RT-PCR in 1 step is carried out e.g. on 50 ng of initial RNA on a 96-well plate, on the genes of actin, elastin, of LOX and of LOXL. The specific primers of each gene are used e.g. at 0.5 μM:”

## CCCC(=O)OC [methyl butyrate]
[1]
  Eln Control multiplied by:: 1.43
[2]
  LOXL Control multiplied by:: 3.24
[3]
  LOX Control multiplied by:: 5.08
[4]; active at 0.01%
  LOXL Control multiplied by:: 0.89
[4]; active at 0.1%
  LOXL Control multiplied by:: 1.56
[4]; active at 1%
  LOXL Control multiplied by:: 2.10*
[4]; active at 5%
  LOXL Control multiplied by:: 0.91
[5]; active at 0.01%
  LOX Control multiplied by:: 1.04
[5]; active at 0.1%
  LOX Control multiplied by:: 1.76*
[5]; active at 1%
  LOX Control multiplied by:: 2.17*
[5]; active at 5%
  LOX Control multiplied by:: 0.91
[6]; active at 0.01%
  El Control multiplied by:: 0.92
[6]; active at 0.1%
  El Control multiplied by:: 0.96
[6]; active at 1%
  El Control multiplied by:: 1.25
[6]; active at 5%
  El Control multiplied by:: 1.70*

## ethyl decadienoate
[1]
  Eln Control multiplied by:: 2.04
[2]
  LOXL Control multiplied by:: 2.32
[3]
  LOX Control multiplied by:: 3.64

## ethyl hexenoate
[1]
  Eln Control multiplied by:: 1.5
[2]
  LOXL Control multiplied by:: 2.33
[3]
  LOX Control multiplied by:: 3.09

## TGF-β
[7]
  stimulation of the synthesis of elastin mRNA: 10
